Results as given in ChEMBL document CHEMBL4699440, “Comprehensive review on the anti-bacterial activity of 1,2,3-triazole hybrids” (Eur J Med Chem, 2019).
Converted amounts (≈) assume the structure as drawn.

Key:
Escherichia coli [1] = experiment: Antibacterial activity against Escherichia coli MTCC […] by serial dilution method; type: functional
Bacillus subtilis = experiment: Antibacterial activity against Bacillus subtilis MTCC 441 by serial dilution method; type: functional
[2] = test system: Staphylococcus epidermidis; experiment: Antibacterial activity against Staphylococcus epidermidis MTCC 6880 by serial dilution method; type: functional
Aspergillus niger = experiment: Antibacterial activity against Aspergillus niger MTCC 8189 by serial dilution method; type: functional
Pseudomonas aeruginosa [3] = experiment: Antibacterial activity against Pseudomonas aeruginosa MTCC 424 by serial dilution method; type: functional
Candida albicans = experiment: Antibacterial activity against Candida albicans MTCC 227 by serial dilution method; type: functional
Escherichia coli [4] = experiment: Antibacterial activity against Escherichia coli assessed as inhibition zone at 10 mg/ml; type: functional; details: read-out: IZ
Klebsiella pneumoniae = experiment: Antibacterial activity against Klebsiella pneumoniae assessed as inhibition zone at 10 mg/ml; type: functional; details: read-out: IZ
Proteus vulgaris = experiment: Antibacterial activity against Proteus vulgaris assessed as inhibition zone at 10 mg/ml; type: functional; details: read-out: IZ
Salmonella typhi = experiment: Antibacterial activity against Salmonella typhi assessed as inhibition zone at 10 mg/ml; type: functional, Salmonella enterica subsp. enterica serovar Typhi; details: Salmonella enterica, read-out: IZ
Pseudomonas aeruginosa [5] = experiment: Antibacterial activity against Pseudomonas aeruginosa assessed as inhibition zone at 10 mg/ml; type: functional; details: read-out: IZ

| SMILES | MIC (Escherichia coli [1]) | MIC (Bacillus subtilis) | MIC [2] | MIC (Aspergillus niger) | MIC (Pseudomonas aeruginosa [3]) | MIC (Candida albicans) | zone of inhibition at 10000 µg/mL (Escherichia coli [4]) | zone of inhibition at 10000 µg/mL (Klebsiella pneumoniae) | zone of inhibition at 10000 µg/mL (Proteus vulgaris) | zone of inhibition at 10000 µg/mL (Salmonella typhi) | zone of inhibition at 10000 µg/mL (Pseudomonas aeruginosa [5]) |
| --- | --- | --- | --- | --- | --- | --- | --- | --- | --- | --- | --- |
| Cc1ccc(Cn2cc(COc3ccc(/C=C/C(=O)c4c(O)cc(C)oc4=O)cc3)nn2)cc1 | 3 µM (≈ 1.37 µg/mL) | 3 µM (≈ 1.37 µg/mL) | 3 µM (≈ 1.37 µg/mL) | 3 µM (≈ 1.37 µg/mL) | 3 µM (≈ 1.37 µg/mL) | 3 µM (≈ 1.37 µg/mL) |  |  |  |  |  |
| COc1ccc2nc(Cl)c(Cn3cc(COc4ccccc4Cl)nn3)cc2c1 |  |  |  |  |  |  | 7 mm | 7 mm | 7 mm | 7 mm | 7 mm |
| COc1ccc2nc(Cl)c(Cn3cc(COc4ccc(Cl)cc4)nn3)cc2c1 |  |  |  |  |  |  | 7 mm | 7 mm | 7 mm | 7 mm | 7 mm |
| CC(=O)Nc1ccc(OCc2cn(Cc3cc4ccccc4nc3Cl)nn2)cc1 |  |  |  |  |  |  | 7 mm | 7 mm | 7 mm | 7 mm | 7 mm |
| Cc1ccc2nc(Cl)c(Cn3cc(COc4ccccc4)nn3)cc2c1 |  |  |  |  |  |  | 7 mm | 7 mm | 7 mm | 7 mm | 7 mm |
| O=[N+]([O-])c1ccc(OCc2cn(Cc3cc4ccccc4nc3Cl)nn2)cc1 |  |  |  |  |  |  | 7 mm | 7 mm | 7 mm | 7 mm | 7 mm |
| Cc1cc(O)c(C(=O)/C=C/c2ccc(OCc3cn(Cc4ccccc4F)nn3)cc2)c(=O)o1 | 3 µM (≈ 1.38 µg/mL) | 3 µM (≈ 1.38 µg/mL) | 3 µM (≈ 1.38 µg/mL) | 3 µM (≈ 1.38 µg/mL) | 3 µM (≈ 1.38 µg/mL) | 3 µM (≈ 1.38 µg/mL) |  |  |  |  |  |
| COc1ccc2nc(Cl)c(Cn3cc(COc4ccc(Cl)c(C)c4)nn3)cc2c1 |  |  |  |  |  |  | 7 mm | 7 mm | 7 mm | 7 mm | 7 mm |
| Cc1ccc2nc(Cl)c(Cn3cc(COc4ccc(Cl)c(C)c4)nn3)cc2c1 |  |  |  |  |  |  | 7 mm | 7 mm | 7 mm | 7 mm | 7 mm |
| Cc1cc(O)c(C(=O)/C=C/c2ccc(OCc3cn(Cc4ccc(Br)cc4)nn3)cc2)c(=O)o1 | 3 µM (≈ 1.57 µg/mL) | 3 µM (≈ 1.57 µg/mL) | 3 µM (≈ 1.57 µg/mL) | 3 µM (≈ 1.57 µg/mL) | 3 µM (≈ 1.57 µg/mL) | 3 µM (≈ 1.57 µg/mL) |  |  |  |  |  |
| Cc1cc(O)c(C(=O)/C=C/c2ccc(OCc3cn(-c4ccccc4)nn3)cc2)c(=O)o1 | 3 µM (≈ 1.29 µg/mL) | 3 µM (≈ 1.29 µg/mL) | 3 µM (≈ 1.29 µg/mL) | 3 µM (≈ 1.29 µg/mL) | 3 µM (≈ 1.29 µg/mL) | 3 µM (≈ 1.29 µg/mL) |  |  |  |  |  |
| Cc1cc(O)c(C(=O)/C=C/c2ccc(OCc3cn(Cc4cccc([N+](=O)[O-])c4)nn3)cc2)c(=O)o1 | 3 µM (≈ 1.47 µg/mL) | 3 µM (≈ 1.47 µg/mL) | 3 µM (≈ 1.47 µg/mL) | 3 µM (≈ 1.47 µg/mL) | 3 µM (≈ 1.47 µg/mL) | 3 µM (≈ 1.47 µg/mL) |  |  |  |  |  |
| Cc1cccc(Cn2cc(COc3ccc(/C=C/C(=O)c4c(O)cc(C)oc4=O)cc3)nn2)c1 | 3 µM (≈ 1.37 µg/mL) | 3 µM (≈ 1.37 µg/mL) | 3 µM (≈ 1.37 µg/mL) | 3 µM (≈ 1.37 µg/mL) | 3 µM (≈ 1.37 µg/mL) | 3 µM (≈ 1.37 µg/mL) |  |  |  |  |  |
| COc1ccc2nc(Cl)c(Cn3cc(COc4ccc(C)cc4)nn3)cc2c1 |  |  |  |  |  |  | 7 mm | 7 mm | 7 mm | 7 mm | 7 mm |
| Cc1ccc2nc(Cl)c(Cn3cc(COc4ccc(Cl)cc4)nn3)cc2c1 |  |  |  |  |  |  | 7 mm | 7 mm | 7 mm | 7 mm | 7 mm |
| Clc1ccc(OCc2cn(Cc3cc4ccccc4nc3Cl)nn2)cc1 |  |  |  |  |  |  | 7 mm | 7 mm | 7 mm | 7 mm | 7 mm |
| Clc1ccccc1OCc1cn(Cc2cc3ccccc3nc2Cl)nn1 |  |  |  |  |  |  | 7 mm | 7 mm | 7 mm | 7 mm | 7 mm |
| Cc1cc(O)c(C(=O)/C=C/c2ccc(OCc3cn(Cc4ccccc4C)nn3)cc2)c(=O)o1 | 3 µM (≈ 1.37 µg/mL) | 3 µM (≈ 1.37 µg/mL) | 3 µM (≈ 1.37 µg/mL) | 3 µM (≈ 1.37 µg/mL) | 3 µM (≈ 1.37 µg/mL) | 3 µM (≈ 1.37 µg/mL) |  |  |  |  |  |
| COc1ccc2nc(Cl)c(Cn3cc(COc4ccc([N+](=O)[O-])cc4)nn3)cc2c1 |  |  |  |  |  |  | 7 mm | 7 mm | 7 mm | 7 mm | 7 mm |
